Structures can show the parent of a compound that is named as a salt. Where two headings read alike, the source gives them in different places.
Assays:
[1] = biological target: T1, central muscarinic M-1 receptors (Rattus norvegicus, UniProt P08482); experiment: biochemical; assay type: binding; conditions: rat brain homogenate, 1.0 nM 3H-pirenzepine, 60 min at 25° C.
T1 sequence (P08482 1-460): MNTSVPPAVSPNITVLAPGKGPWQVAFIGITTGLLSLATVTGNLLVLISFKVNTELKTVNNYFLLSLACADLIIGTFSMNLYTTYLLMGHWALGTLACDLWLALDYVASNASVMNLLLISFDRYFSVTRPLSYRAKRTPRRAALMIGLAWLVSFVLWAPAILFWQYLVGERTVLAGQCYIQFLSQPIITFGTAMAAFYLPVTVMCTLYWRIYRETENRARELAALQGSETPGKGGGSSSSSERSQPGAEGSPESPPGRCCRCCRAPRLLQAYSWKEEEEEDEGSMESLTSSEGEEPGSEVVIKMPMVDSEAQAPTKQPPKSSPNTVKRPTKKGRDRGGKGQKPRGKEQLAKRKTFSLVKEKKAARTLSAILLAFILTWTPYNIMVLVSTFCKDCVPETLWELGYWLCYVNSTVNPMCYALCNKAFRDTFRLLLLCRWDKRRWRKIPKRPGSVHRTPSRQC
Experimental: ^3 H-pirenzepine binding was performed essentially as described by Watson et al., 1983, the conditions being very much the same as for ^3 H-oxotremorine binding, except that aliquots were incubated with 1.0 nM ^3 H-pirenzepine for 60 min. at 25° C. and that the reaction was stopped by direct filtration followed by 3 washes with 4 ml buffer.

[2] = biological target: central cholinergic receptors; experiment: 3H-oxotremorine M binding (displacement from rat brain homogenates); conditions: rat brain homogenate, 40 min at 30° C., pH 7.4, read-out: 3H-Oxo-M IC50
Experimental: The new compounds have high affinity to central cholinergic receptors, as measured by the ability of the compounds to displace tritiated oxotremorine-M from rat brain homogenates. The compounds have also high affinity to central muscarinic M-1 receptors, as defined by their ability to displace tritiated pirenzepine from rat brain homogenates. […]
^3 H-oxotremorine M binding was performed essentially as described by Birdsdall et al., 1980. Briefly, rat brains were homogenized in 100 vol (w/v) 10 mM Na,K-phosphate buffer (pH 7.4) and aliquots incubated with ^3 H-oxotremorine M (84.9 Ci/mmol, NEN) alone or in the presence of test compound in a total volume of 1.5 ml for 40 min. at 30° C. The reaction was stopped by adding 5 ml ice-cold buffer and filtered through Whatman GF/B filters soaked previously in 0.1% polyethylenimin (Sigma) for minimum 30 min. The filters were washed once with the same volume of buffer, transferred to scintillation vials and extracted in scintillation fluid (Pico-fluor 15, Packard) for at least two hours before counted in a liquid scintillation spectrometer (Beckman LS 1800). Non-specific binding was estimated at 10 μM atropine and all estimations made in triplicate. At least two displacement curves were made for each compound tested.

[3] = cited from earlier work
[4] = after peripheral administration; cited from earlier work
[5] = after peripheral administration; cited from earlier work; remark: listed apart in the source

Structure (SMILES) | IC50 [1] | IC50 [2] | further results
C#CCOc1nsc2c1CNCC2C (stereo not shown) [Compound 19, 7-Methyl-3-(2-propynyloxy)-4,5,6,7-tetrahydroisothiazolo[4,5-c]pyridine, fumarate] | 6.9 nM | 1.8 nM | –
COc1nsc2c1CNCC2 [Compound 3, 3-Methoxy-4,5,6,7-tetrahydroisothiazole[4,5-c]pyridine Hydrochloride] | 1700 nM | 18 nM | –
C#CCOc1nsc2c1CNCC2C (single isomer, unassigned; (+)) [Compound 20, (+)-7-Methyl-3-(2-propynyloxy)-4,5,6,7-tetrahydroisothiazolo[4,5-c]pyridine, fumarate] | 5.5 nM | – | IC50 ([2]; fumarate): 1.6 nM
C=CCOc1nsc2c1CNCC2C (stereo not drawn) [Compound 25, (-+)-7-Methyl-3-(2-propenyloxy)-4,5,6,7-tetrahydroisothiazolo[4,5-c]pyridine, fumarate] | 11 nM | 5.3 nM | –
C#CCOc1nsc2c1CNCC2C (single isomer, unassigned; (-)) [Compound 21, (-)-7-Methyl-3-(2-propynyloxy)-4,5,6,7-tetrahydroisothiazolo[4,5-c]pyridine, fumarate] | 8.1 nM | – | IC50 ([2]; fumarate): 0.93 nM
CCOc1nsc2c1CNCC2 [Compound 5, 3-Ethoxy-4,5,6,7-tetrahydroisothiazolo[4,5-c]pyridine, maleate] | 370 nM | 29 nM | –
C#CCOc1nsc2c1CN(C)CC2C (stereo not drawn) [Compound 22, (-+)-5,7-Dimethyl-3-(2-propynyloxy)-4,5,6,7-tetrahydroisothiazolo[4,5-c]pyridine, oxalate] | 6.7 nM | 5.3 nM | –
C#CCOc1noc2c1CNCC2C (single isomer, unassigned; (+)) [(+)-O-propargyl-7-Me-THPO, (+)7-methyl-3-(2-propynyloxy)-4,5,6,7-tetrahydroisoxazolo[4,5c]pyridine, reference compound] | 61 nM | 18 nM | –
COc1nsc2c1CNCC2C (stereo not shown) [Compound 18, 3-Methoxy-7-methyl-4,5,6,7-tetrahydroisothiazolo[4,5-c]pyridine, fumarate] | 130 nM | 24 nM | –
C#CCOc1nsc2c1CN(C)CC2C (single isomer, unassigned; (+)) [Compound 23, (+)-5,7-Dimethyl-3-(2-propynyloxy)-4,5,6,7-tetrahydroisothiazolo[4,5-c]pyridine, oxalate] | 14 nM | – | IC50 ([2]; oxalate): 18 nM
COC(=O)C1=CCCN(C)C1 [Arecoline, methyl 1-methyl-1,2,5,6-tetrahydropyridine-3-carboxylate] | – | 1.9 nM | hydrolysis of the ester group in vivo [3]: very rapidly hydrolyzed in vivo; central effects [4]: very weak and frequently negligible central effects; penetration of the BBB [5]: capable of penetrating the BBB after peripheral administration
C#CCOc1nsc2c1CNCC2 [Compound 8, 3-(2-Propynyloxy)-4,5,6,7-tetrahydroisothiazole[4,5-c]pyridine, hemifumarate] | 53 nM | 6.3 nM | –
C#CCOc1nsc2c1CN(C)CC2C (single isomer, unassigned; (-)) [Compound 24, (-)-5,7-Dimethyl-3-(2-propynyloxy)-4,5,6,7-tetrahydroisothiazolo[4,5-c]pyridine, oxalate] | 4.3 nM | – | IC50 ([2]; oxalate): 3.8 nM

Reference: patent US4923880A, “4,5,6,7-Tetrahydroisothiazolo (4,5-c) pyridine derivatives” (H. Lundbeck A/S, priority 1988, dated 1990)
